In test [1] the test system is HepG2. Description: Cytotoxicity in human HepG2 cells assessed as reduction in cell viability incubated for 3 days by MTT assay. The format is functional, cell-based. A general note: Formazan colour is commonly taken as a measure of viable cells.
The subject of test [2] is MCF7. Description: Cytotoxicity in human MCF7 cells assessed as reduction in cell viability incubated for 3 days by MTT assay. The format is functional, cell-based.
In test [3] the test system is A549. Description: Cytotoxicity in human A549 cells assessed as reduction in cell viability incubated for 3 days by MTT assay. The format is functional, cell-based.
Test [4] deals with NCM460. Description: Cytotoxicity in human NCM460 cells assessed as reduction in cell viability incubated for 3 days by MTT assay. The format is cell-based.
The test system of test [5] is HeLa. The experiment in a line: Cytotoxicity in human HeLa cells assessed as reduction in cell viability incubated for 3 days by MTT assay. The format is functional, cell-based.
Setting [6] is: Homo sapiens, HeLa, 72 h, read-out: IC50.

The source of these data is ChEMBL document CHEMBL4340579, “HPLC-DAD-Directed Isolation of Linearly Fused Prenylated Indole Alkaloids from a Soil-Derived Aspergillus versicolor” (J Nat Prod, 2019).

By IC50 is commonly meant the concentration that inhibits the measured activity by half.

Structures are written as SMILES. A value given as a limit tells only on which side of the number the result lay.

As to `C=CC(C)(C)[C@]1(C[C@@H]2NC(=O)[C@@H]3CCCN3C2=O)C(=O)Nc2cc3c(cc21)C=CC(C)(C)O3`, the IC50 entry was “Not Active” in test [1] (hepg2); “Not Active” in test [2] (mcf7); “Not Active” in test [3] (a549); “Non-Toxic” in test [4] (ncm460); “Not Active” in test [5] (hela).
As for `CC(=O)O[C@H]1C(=O)[C@@]2(C)[C@H]([C@H](OC(=O)c3ccccc3)[C@]3(O)C[C@H](OC(=O)[C@H](O)[C@@H](NC(=O)c4ccccc4)c4ccccc4)C(C)=C1C3(C)C)[C@]1(OC(C)=O)CO[C@@H]1C[C@@H]2O` [PACLITAXEL], the IC50 in test [1] (Homo sapiens, HepG2, 72 h, read-out: IC50) was less than 8 nM; in test [2] (Homo sapiens, MCF7, 72 h, read-out: IC50), less than 8 nM; in test [3] (Homo sapiens, A549, 72 h, read-out: IC50), less than 8 nM; in test [4] (Homo sapiens, NCM460, 72 h, read-out: IC50) it was less than 8 nM; in test [5] (setting [6]), less than 8 nM.
As for `C=CC(C)(C)[C@@]12Nc3cc4c(cc3[C@]1(O)C[C@]1(O)C(=O)N3CCC[C@H]3C(=O)N21)C=CC(C)(C)O4`, the IC50 entry is recorded as “Not Active” in test [1] (hepg2); “Not Active” in test [2] (mcf7); “Not Active” in test [3] (a549); “Non-Toxic” in test [4] (ncm460); “Not Active” in test [5] (hela).
As for `C=CC(C)(C)[C@]1(CC2NC(=O)C3(O)CCCN3C2=O)C(=O)Nc2cc3c(cc21)C=CC(C)(C)O3` (stereo not given in full), the IC50 entry in test [1] (hepg2) is listed as “Not Active”; in test [2] (mcf7), “Not Active”; in test [3] (a549), “Not Active”; in test [4] (ncm460) it was “Non-Toxic”; in test [5] (hela), “Not Active”.
On to `C=CC(C)(C)c1[nH]c2cc3c(cc2c1C=O)C=CC(C)(C)O3`, for which the IC50 result was “Not Active” in test [1] (hepg2); “Not Active” in test [2] (mcf7); “Not Active” in test [3] (a549); “Non-Toxic” in test [4] (ncm460); 6400 nM in test [5] (setting [6]).
On to `C=CC(C)(C)[C@@]12Nc3cc4c(cc3[C@]1(O)C[C@H]1C(=O)N3CCC[C@H]3C(=O)N12)C=CC(C)(C)O4`, for which the IC50 result in test [1] (hepg2) is on record as “Not Active”; in test [2] (mcf7) it was “Not Active”; in test [3] (a549), “Not Active”; in test [4] (ncm460) it was “Non-Toxic”; in test [5] (hela), “Not Active”.
Regarding `C=CC(C)(C)[C@@]1(C[C@@H]2NC(=O)[C@@H]3CCCN3C2=O)C(=O)Nc2cc3c(cc21)C=CC(C)(C)O3`, the IC50 result was “Not Active” in test [1] (hepg2); “Not Active” in test [2] (mcf7); “Not Active” in test [3] (a549); “Non-Toxic” in test [4] (ncm460); “Not Active” in test [5] (hela).
Take `C=CC(C)(C)[C@@]12Nc3cc4c(cc3[C@]1(O)C[C@]1(NC(=O)[C@H]3CCCN3C1=O)O2)C=CC(C)(C)O4`: the IC50 result in test [1] (hepg2) was “Not Active”; in test [2] (mcf7), “Not Active”; in test [3] (a549), “Not Active”; in test [4] (ncm460), “Non-Toxic”; in test [5] (setting [6]) it was 7300 nM.
For the molecule `C=CC(C)(C)[C@]1(C[C@]2(OC)NC(=O)[C@@H]3CCCN3C2=O)C(=O)Nc2cc3c(cc21)C=CC(C)(C)O3`, the IC50 entry was “Not Active” in test [1] (hepg2); “Not Active” in test [2] (mcf7); “Not Active” in test [3] (a549); “Non-Toxic” in test [4] (ncm460); “Not Active” in test [5] (hela).
Consider `C=CC(C)(C)[C@]1(CC2(O)NC(=O)C3CCCN3C2=O)C(=O)Nc2cc3c(cc21)C=CC(C)(C)O3` (stereo not given in full), for which the IC50 entry was “Not Active” in test [1] (hepg2); “Not Active” in test [2] (mcf7); “Not Active” in test [3] (a549); “Non-Toxic” in test [4] (ncm460); “Not Active” in test [5] (hela).
